Measurements published in patent publication US20260083851A1 (AVILAR THERAPEUTICS, INC., priority 2022, published 2026).
Read-outs that look alike come from different tables or passages of the source.

How the values were obtained:
[1] = molecular target: T1, ASGPR receptor on HepG2 cells (ternary complex with AF488-labeled antibody) (Homo sapiens, UniProt P07306); assay: Ternary complex formation assay (flow cytometry, cell-associated AF488 fluorescence); type: cell-based; details: 100 nM AF488-labeled antibody, 1 hour at 4° C.
T1 construct: host or cells: HepG2
T1 sequence (P07306 1-291): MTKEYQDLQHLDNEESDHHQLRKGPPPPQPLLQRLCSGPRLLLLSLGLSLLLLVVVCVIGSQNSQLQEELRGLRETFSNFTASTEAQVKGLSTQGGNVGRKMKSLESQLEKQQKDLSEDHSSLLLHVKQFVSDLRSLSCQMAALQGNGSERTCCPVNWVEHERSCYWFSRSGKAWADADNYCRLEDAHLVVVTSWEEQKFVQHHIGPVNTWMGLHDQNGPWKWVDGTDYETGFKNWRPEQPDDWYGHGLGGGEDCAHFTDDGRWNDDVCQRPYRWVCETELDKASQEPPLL
T1 sequence (P07307 1-311 partner): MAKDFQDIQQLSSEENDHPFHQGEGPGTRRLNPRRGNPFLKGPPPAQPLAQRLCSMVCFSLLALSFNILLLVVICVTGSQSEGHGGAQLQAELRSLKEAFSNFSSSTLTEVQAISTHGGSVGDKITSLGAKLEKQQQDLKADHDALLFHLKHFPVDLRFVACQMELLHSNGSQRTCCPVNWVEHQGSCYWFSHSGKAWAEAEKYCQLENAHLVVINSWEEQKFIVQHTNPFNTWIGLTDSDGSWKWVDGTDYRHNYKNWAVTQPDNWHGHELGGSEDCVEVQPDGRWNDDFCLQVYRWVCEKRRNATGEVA

HepG2 cells = assay: Cellular uptake assay (high-content imaging); type: cell-based, human; details: 100 nM AF488-labeled antibody, 6 hours at 37° C.
Source text: The cellular uptake assay is designed to measure compound-mediated cellular uptake of fluorescently labeled antibody following ternary complex formation with the ASGPR receptor and endocytosis of the entire complex into cells. The optimal concentration of compound will result in the maximum number of cells with intracellular antibody and is represented as the peak ratio of antibody-positive cells over the total number of cells. As with the ternary complex formation assay, too much or too little compound will result in suboptimal complex formation and fewer cells will have measurable intracellular fluorescence.
Human IgG (Sigma-Aldrich, 14506) was covalently labeled with Alexa Fluor 488 using the Alexa Fluor™ 488 Protein Labeling Kit (Thermo Fisher, A10235) following the manufacturer's instructions. HepG2 cells were plated in DMEM supplemented with 10% FBS at 5,000 cells per well in a 96-well microtiter plate and incubated for approximately 18 hours at 37° C./5% CO2. For studies using human IgG, 100 nM AF488-labeled human IgG antibodies and serial dilutions of IgG-based degrader (0.1% DMSO final concentration) were added to the cells and the mixture was incubated at 37° C. for 6 hours. For studies using DNP, 100 nM AF488-labeled DNP antibodies and serial dilutions of DNP-based degrader (0.1% DMSO final concentration) were added to the cells and the mixture was incubated at 37° C. for 6 hours. HepG2 cells were fixed in 100% methanol at −20° C. for 20 min, washed 3× with PBS, then stained with DAPI (Thermo, Cat #H3570). HepG2 cells were imaged for DAPI and Alexa Fluor 488 using the Operetta CLS, high-content analysis system (PerkinElmer). Data is presented as the ratio of the number of cells positive for hIgG or DNP (AF-488 fluorescence) over the total cell number (measured by DAPI).

IgG = IgG SPR binding
ASGPR = molecular target: T2, ASGPR (Homo sapiens, UniProt P07306); assay: ASGPR SPR binding
T2 construct: biotin (biotinylated)
T2 sequence (P07306 1-291): T1 sequence (P07306 1-291)

[2] = the 25th table, class symbols, read-out: TCF EC50
[3] = the 25th table, class symbols, read-out: Uptake EC50
[4] = Table 3, read-out: IgG SPR Binding KD
[5] = Table 3, read-out: ASGPR SPR Binding KD
[6] = Table 3, class symbols, read-out: Ternary Complex EC50
[7] = second table, read-out: ASGPR KD
[8] = Homo sapiens, Table 3, class symbols, read-out: Uptake Assay (EC50)

`CC(C)C[C@@H]1NC(=O)[C@H](Cc2cnc[nH]2)NC(=O)[C@H](Cc2c[nH]c3ccccc23)NC(=O)[C@H](C)NC(=O)[C@@H]2CSSC[C@H](NC(=O)[C@H](Cc3c[nH]c4ccccc34)NC(=O)[C@H](C(C)C)NC(=O)[C@H](CC(C)C)NC(=O)[C@H](CCC(=O)O)NC(=O)CNC1=O)C(=O)N[C@@H]([C@@H](C)O)C(=O)N1CCC[C@@H]1C(=O)N1C[C@@H](NC(=O)CCOCCOCCOCCOCCNC(=O)CCCc3cn(CCCCCC(=O)NC(COCCC(=O)NCCO[C@@H]4O[C@H](CO)[C@H](O)[C@H](O)[C@H]4Nc4cncc(C(F)(F)F)n4)COCCC(=O)NCCO[C@@H]4O[C@H](CO)[C@H](O)[C@H](O)[C@H]4Nc4cncc(C(F)(F)F)n4)nn3)C[C@H]1C(=O)N[C@@H](CC(=O)O)C(=O)N2` [compound 84] gave an EC50 [1, 2] of less than 100 nM and an EC50 (HepG2 cells; [3]) of less than 100 nM.

With `CC(C)C[C@@H]1NC(=O)[C@H](Cc2cnc[nH]2)NC(=O)[C@H](Cc2c[nH]c3ccccc23)NC(=O)[C@H](C)NC(=O)[C@@H]2CSSC[C@H](NC(=O)[C@H](Cc3c[nH]c4ccccc34)NC(=O)[C@H](C(C)C)NC(=O)[C@H](CC(C)C)NC(=O)[C@H](CCC(=O)O)NC(=O)CNC1=O)C(=O)N[C@@H]([C@@H](C)O)C(=O)N1CCC[C@@H]1C(=O)N1C[C@H](NC(=O)COCCOCC(=O)NC[C@H]3OC[C@H](Nc4cccc(C(F)(F)F)n4)[C@@H](O)[C@H]3O)C[C@H]1C(=O)N[C@@H](CC(=O)O)C(=O)N2` [compound 28] the Kd (IgG; [4]) was less than 100 nM, the Kd (ASGPR; [5]) was less than 100 nM and the EC50 [1, 6] was less than 100 nM. For the same compound, the EC50 (HepG2 cells; Homo sapiens, Table 3, numeric bounds, read-out: Uptake Assay (EC50)) was greater than 1100 nM.

In the case of `CC(=O)N[C@H]1[C@H](OCCCCOCCOCCOCCNC(=O)CCOCC(COCCC(=O)NCCOCCOCCOCCO[C@@H]2O[C@H](CO)[C@H](O)[C@H](O)[C@H]2NC(C)=O)NC(=O)CCCCCn2cc(CCCC(=O)NCCOCCOCCOCCOCCC(=O)N[C@H]3C[C@H]4C(=O)N[C@@H](CC(=O)O)C(=O)N[C@H]5CSSC[C@H](NC(=O)[C@H](Cc6c[nH]c7ccccc67)NC(=O)[C@H](C(C)C)NC(=O)[C@H](CC(C)C)NC(=O)[C@H](CCC(=O)O)NC(=O)CNC(=O)[C@H](CC(C)C)NC(=O)[C@H](Cc6cnc[nH]6)NC(=O)[C@H](Cc6c[nH]c7ccccc67)NC(=O)[C@H](C)NC5=O)C(=O)N[C@@H]([C@@H](C)O)C(=O)N5CCC[C@@H]5C(=O)N4C3)nn2)O[C@H](CO)[C@H](O)[C@@H]1O` (stereo partly drawn) [compound 86], the Kd (IgG; second table, read-out: IgG KD) is reported as less than 100 nM, the Kd (ASGPR; [7]) is reported as greater than 1000 nM and the EC50 [1, 2] is reported as greater than 1000 nM. The EC50 (HepG2 cells; [3]) was greater than 1000 nM.

In the case of `CC(C)C[C@@H]1NC(=O)[C@H](Cc2cnc[nH]2)NC(=O)[C@H](Cc2c[nH]c3ccccc23)NC(=O)[C@H](C)NC(=O)[C@@H]2CSSC[C@H](NC(=O)[C@H](Cc3c[nH]c4ccccc34)NC(=O)[C@H](C(C)C)NC(=O)[C@H](CC(C)C)NC(=O)[C@H](CCC(=O)O)NC(=O)CNC1=O)C(=O)N[C@@H]([C@@H](C)O)C(=O)N1CCC[C@@H]1C(=O)N1C[C@@H](NC(=O)c3ccc(N4CCC(CN5CCN(C[C@H]6OC[C@H](Nc7cccc(C(F)(F)F)n7)[C@@H](O)[C@H]6O)CC5)CC4)cc3)C[C@H]1C(=O)N[C@@H](CC(=O)O)C(=O)N2` [compound 26], the Kd (IgG; [4]) is reported as less than 100 nM, the Kd (ASGPR; [5]) is reported as less than 100 nM and the EC50 [1, 6] is reported as less than 100 nM. It also gave an EC50 (HepG2 cells; [8]) of less than 100 nM.

`CC(C)C[C@@H]1NC(=O)[C@H](Cc2cnc[nH]2)NC(=O)[C@H](Cc2c[nH]c3ccccc23)NC(=O)[C@H](C)NC(=O)[C@@H](NC(=O)[C@H](CC(=O)O)NC(=O)CCOCCOCCOCCOCCNC(=O)CCCc2cn(CCCCCC(=O)NC(COCCC(=O)NCCOCCOCCOCCO[C@@H]3O[C@H](CO)[C@H](O)[C@H](O)[C@H]3Nc3cncc(C(F)(F)F)n3)COCCC(=O)NCCOCCOCCOCCO[C@@H]3O[C@H](CO)[C@H](O)[C@H](O)[C@H]3Nc3cncc(C(F)(F)F)n3)nn2)CSSC[C@@H](C(=O)N[C@H](C(N)=O)[C@@H](C)O)NC(=O)[C@H](Cc2c[nH]c3ccccc23)NC(=O)[C@H](C(C)C)NC(=O)[C@H](CC(C)C)NC(=O)[C@H](CCC(=O)O)NC(=O)CNC1=O` [compound 93] showed a Kd (IgG; second table, read-out: IgG KD) of less than 100 nM, a Kd (ASGPR; [7]) of less than 100 nM and an EC50 [1, 2] of less than 100 nM. It also gave an EC50 (HepG2 cells; [3]) of less than 100 nM.

With `CC(C)C[C@@H]1NC(=O)[C@H](Cc2cnc[nH]2)NC(=O)[C@H](Cc2c[nH]c3ccccc23)NC(=O)[C@H](C)NC(=O)[C@@H]2CSSC[C@H](NC(=O)[C@H](Cc3c[nH]c4ccccc34)NC(=O)[C@H](C(C)C)NC(=O)[C@H](CC(C)C)NC(=O)[C@H](CCC(=O)O)NC(=O)CNC1=O)C(=O)N[C@@H]([C@@H](C)O)C(=O)N1CCC[C@@H]1C(=O)N1C[C@@H](NC(=O)COCCOCC(=O)NC[C@H]3OC[C@H](Nc4cccc(C(F)(F)F)n4)[C@@H](O)[C@H]3O)C[C@H]1C(=O)N[C@@H](CC(=O)O)C(=O)N2` [compound 25] the Kd (ASGPR; [5]) was 500 to 1000 nM, the EC50 [1, 6] was less than 100 nM and the EC50 (HepG2 cells; [8]) was less than 100 nM.

For `CC(C)C[C@@H]1NC(=O)[C@H](Cc2cnc[nH]2)NC(=O)[C@H](Cc2c[nH]c3ccccc23)NC(=O)[C@H](C)NC(=O)[C@@H]2CSSC[C@H](NC(=O)[C@H](Cc3c[nH]c4ccccc34)NC(=O)[C@H](C(C)C)NC(=O)[C@H](CC(C)C)NC(=O)[C@H](CCC(=O)O)NC(=O)CNC1=O)C(=O)N[C@@H]([C@@H](C)O)C(=O)N1CCC[C@@H]1C(=O)N1C[C@H](NC(=O)COCCOCC(=O)NC[C@H]3OC[C@H](Nc4cncc(C(F)(F)F)n4)[C@@H](O)[C@H]3O)C[C@H]1C(=O)N[C@@H](CC(=O)O)C(=O)N2` [compound 96], the Kd (IgG; second table, read-out: IgG KD) was less than 100 nM, the Kd (ASGPR; [7]) was less than 100 nM and the EC50 (HepG2 cells; Homo sapiens, the 25th table, class symbols, read-out: Uptake EC50) was less than 100 nM.

`CC(C)C[C@@H]1NC(=O)[C@H](Cc2cnc[nH]2)NC(=O)[C@H](Cc2c[nH]c3ccccc23)NC(=O)[C@H](C)NC(=O)[C@@H](NC(=O)[C@H](CC(=O)O)NC(=O)CCOCCCCOCCCCOCCCCOCCNC(=O)CCCc2cn(CCCCCC(=O)NC(COCCC(=O)NCCOCCOCCOCCOC[C@H]3OC[C@H](Nc4nccc(C(F)(F)F)n4)C[C@H]3O)COCCC(=O)NCCOCCOCCOCCOC[C@H]3OC[C@H](Nc4nccc(C(F)(F)F)n4)C[C@H]3O)nn2)CSSC[C@@H](C(=O)N[C@H](C(N)=O)[C@@H](C)O)NC(=O)[C@H](Cc2c[nH]c3ccccc23)NC(=O)[C@H](C(C)C)NC(=O)[C@H](CC(C)C)NC(=O)[C@H](CCC(=O)O)NC(=O)CNC1=O` [compound 92] showed a Kd (ASGPR; [7]) greater than 1000 nM, an EC50 [1, 2] greater than 1000 nM and an EC50 (HepG2 cells; [3]) greater than 1000 nM.

Compound `CC(C)C[C@@H]1NC(=O)[C@H](Cc2cnc[nH]2)NC(=O)[C@H](Cc2c[nH]c3ccccc23)NC(=O)[C@H](C)NC(=O)[C@@H](NC(=O)[C@H](CC(=O)O)NC(=O)CCOCCOCCOCCOCCNC(=O)CCCc2cn(CCCCCC(=O)NC(COCCC(=O)NCCOCCOCCOCCOC[C@H]3CO[C@H](Nc4cncc(C(F)(F)F)n4)[C@@H](O)[C@H]3O)(COCCC(=O)NCCOCCOCCOCCOC[C@H]3OC[C@H](Nc4nccc(C(F)(F)F)n4)[C@@H](O)[C@H]3O)COCCC(=O)NCCOCCOCCOCCOC[C@H]3OC[C@H](Nc4nccc(C(F)(F)F)n4)[C@@H](O)[C@H]3O)nn2)CSSC[C@@H](C(=O)N[C@H](C(N)=O)[C@@H](C)O)NC(=O)[C@H](Cc2c[nH]c3ccccc23)NC(=O)[C@H](C(C)C)NC(=O)[C@H](CC(C)C)NC(=O)[C@H](CCC(=O)O)NC(=O)CNC1=O` [compound 94] has a Kd (ASGPR; [7]) of less than 100 nM, an EC50 [1, 2] of less than 100 nM and an EC50 (HepG2 cells; [3]) of less than 100 nM.
